From patent US20120045816A1, “Novel Glycosylated Polypeptides” (Sialix, Inc., priority 2008, published 2012)

Legend:
[1] = system: Human 293T cells; experiment: Reduction of Neu5Gc contamination in 293T human kidney cells by Neu5Ac chase; format: cell-based; settings: 5 mM Neu5Ac chase after 5 mM Neu5Gc for 3 days; HPLC; FIG. 3A-B
Description: Reduction of Neu5Gc Contamination in Glycosylated Polypeptides in 293T Human Kidney Cells. 293T human kidney cells were grown in DME supplemented with 10% FCS. Cells were lifted from culture plate using 20 mM EDTA in PBS and allowed to grow to 50% confluence. Buffered 100 mM Neu5Gc was added to the culture in duplicate at a final 5 mM concentration, and the cells were grown in this supplemented media for 3 days. At the end of this Neu5Gc pulse, the cells were once again lifted using 20 mM EDTA in PBS, pelleted, washed once with PBS to remove any excess Neu5Gc and then suspended in 30 ml of growth medium. Five ml of this cell suspension was added to each of […]. The last aliquot of cell suspension, time “0”, was immediately harvested by pelleting the cells, washing once with PBS, followed by suspending the cells in 1 ml of PBS and transferring to a 1.5 ml microcentrifuge tube. The cells were re-pelleted and frozen until all time points were collected. […]
Free Neu5Ac in Human 293T Cell Culture Medium Reduces Neu5Gc Contamination. […] Cells were harvested as described above, and the Neu5Gc and Neu5Ac content of both the ethanol soluble (FIG. 3A) and ethanol precipitable proteins (FIG. 3B) was analyzed by HPLC. […]

[2] = system: CHO cells; experiment: Reduction of Neu5Gc contamination in CHO cells by feeding Neu5Ac; format: cell-based, Chinese Hamster; settings: 5 mM Neu5Ac in medium; DMB-HPLC and Western blot; FIG. 3C-E
Description: Reduction of Neu5Gc Contamination in Glycosylated polypeptides in CHO Cells. A similar approach was taken to CHO cells stably expressing a Siglec-Fc protein in the medium, except that the Neu5Gc pulse was omitted, and the secreted glycoproteins were captured on Protein-A Sepharose beads. The cells were also processed similarly, except that total cell membranes were pelleted by centrifugation. The Sias content of the secreted proteins and cell membranes was determined by acid hydrolysis, DMB derivatization and HPLC. The cell membranes were also studied for NueSGc content by Western-blotting with the chicken anti-Neu5Gc IgY, as described above.
Free Neu5Ac in Non-Human CHO Cell Culture Medium Reduces Neu5Gc Contamination. However, many recombinant glycosylated polypeptides are currently produced in non-human cells, e.g., Chinese Hamster Ovary (CHO) cell lines. Glycosylated polypeptide produced in CHO cells carry small amounts of Neu5Gc^19,5. […] The individually collected media was centrifuged to remove cell debris and adjusted to 5 mM Tris-HCl pH 8. The fusion protein was purified using Protein-A Sepharose. Sialic acid content was determined by DMB-HPLC analysis (FIG. 3C). The area under each peak was obtained and the percent of Neu5Gc in each sample was determined relative to Neu5Ac. Total cell membranes from the same CHO cells were prepared and used for DMB-HPLC analysis (FIG. 3D). […]

[3] = system: anti-Neu5Gc antibodies from whole human sera; experiment: Direct binding of anti-Neu5Gc antibodies from whole human sera to Fab fragments (ELISA); settings: serum S34; Fab fragments 1 μg/well; FIG. 2C
Description: Direct binding of anti-Neu5Gc antibodies from whole human sera to the glycosylated polypeptides, Cet and Pan, was evaluated. […] Fab fragments (1 μg/well) were used as target molecules in ELISA. Sialic acid specific binding was determined with sodium metaperiodate treatment. Wells were then blocked and incubated with human sera (S30 and S34 with low and high anti-Neu5Gc IgG titers, respectively, from Ref. 7).

[4] = Sialic acid quantity (DMB-HPLC); format: physicochemical
Description: DMB-HPLC. Samples were subjected to base treatment with 0.1 M NaOH (final) at 37° C. for 30 min to remove O-acetyl esters, and the sialic acids were released by acid hydrolysis with 2 M acetic acid (final), at 80° C. for 3 hours. Samples were passed through Microcon-10 columns (20 min, 10000×g; Millipore), derivatized with 1,2-diamino-4,5-methyl dioxybenzene (DMB), and analyzed by HPLC as described^9 in Hara et al., 1986, J. Chromatography 377:111-119. Measured values of non acid-treated controls (free sialic acids) were subtracted.
(§1) Sialic Acid Quantity. The levels of Sialic acids on the therapeutic antibodies (TAbs) Cet and Pan were determined. […] Cet and Pan (1 μg each) were separated by SDS-PAGE and Coomassie stained or blotted (see FIG. 1B). […] The absorbance was measured at 405 nm.

[5] = system: anti-Neu5Gc antibodies in human serum; experiment: CIC-C1q binding assay, immune complex formation in whole human serum; settings: 40 μg antibody in 100 μl serum, FIG. 1F
Description: CIC-C1q Binding Assay. […] 1:50 dilutions of the mix were applied to human C1 q coated ELISA wells, and incubated for 1 h at 25° C. […] The absorbance was measured at 405 nm. Samples were studied in triplicate.
as §1

[6] = system: affinity-purified chicken anti-Neu5Gc IgY; experiment: ELISA detection of Neu5Gc on Cetuximab and Panitumumab; format: binding; settings: 1 μg antibody per well; FIG. 1A
Excerpt: Sialidase Treatment of Cet and Pan. […] Samples were used for ELISA or Western Blots.
ELISA samples were studied at least in triplicate. […] Samples were studied in triplicate.
ELISA We first did ELISA assays using an affinity-purified polyclonal chicken anti-Neu5Gc antibody preparation that is highly mono-specific for Neu5Gc^5, alongside a non-reactive control IgY.

Row | Compound | Effect on Neu5Gc content of cells preloaded with Neu5Gc [1] | Effect on Neu5Gc of membrane glycoproteins and a secreted recombinant protein [2] | Mild periodate sensitive binding of serum IgG to Fab fragments, high anti-Neu5Gc titer serum [3] | Share of Neu5Gc in the Sias [4] | Sias carried by the antibody [4] | Immune complex formation, low titer human serum ([5]; serum S30) | Immune complex formation, human serum with high levels of anti-Neu5Gc antibodies ([5]; serum S34) | Bound Neu5Gc detected by chicken anti-Neu5Gc IgY (ELISA) [6]
1 | CC(=O)N[C@H]1[C@H]([C@H](O)[C@H](O)CO)OC(O)(C(=O)O)C[C@@H]1O (some centres unmarked) [Neu5Ac, N-acetylneuraminic acid] | more rapid disappearance of ethanol-precipitable (glycosidically-bound) Neu5Gc | reduces Neu5Gc in CHO cells |  |  |  |  |  | 
2 | Panitumumab: fully human antibody against the EGF receptor produced in Chinese Hamster Ovary cells |  |  | not to those of Panitumumab | < 0.1% | 0.22 mol/mol | no detectable immune complex formation | no detectable immune complex formation | not on Panitumumab
